Assays:
Acetylcholinesterase = Acetylcholinesterase (Electrophorus electricus, UniProt O42275); assay: Inhibition of electric eel AChE using acetylthiocholine chloride as substrate incubated for 5 mins followed by substrate addition measured after 180 secs by Ellman's method
PC-12 [1] = assay: Neuroprotective activity against H2O2-induced apoptosis in rat PC12 cells assessed as viable cells at 10 uM after 24 hrs by Annexin V-FITC/propidium iodide staining-based flow cytometry (reference value: 68.4%); type: functional; conditions: PC-12, 24 h, read-out: Activity
[2] = biological target: Cholinesterase (Equus caballus) (UniProt P81908); assay: Inhibition of equine serum BuChE at 100 uM using butyrylthiocholine iodide as substrate incubated for 5 mins followed by substrate addition measured after 180 secs by Ellman's method relative to control
PC-12 [3] = assay: Neuroprotective activity against H2O2-induced apoptosis in rat PC12 cells assessed as necrotic cells at 5 uM after 24 hrs by Annexin V-FITC/propidium iodide staining-based flow cytometry (reference value: 4.9%); type: functional
PC-12 [4] = assay: Neuroprotective activity against H2O2-induced apoptosis in rat PC12 cells assessed as viable cells at 5 uM after 24 hrs by Annexin V-FITC/propidium iodide staining-based flow cytometry (reference value: 68.4%); type: functional; conditions: PC-12, 24 h, read-out: Activity
PC-12 [5] = assay: Neuroprotective activity against H2O2-induced apoptosis in rat PC12 cells assessed as early apoptotic cells at 2.5 uM after 24 hrs by Annexin V-FITC/propidium iodide staining-based flow cytometry (reference value: 1.4%); type: functional
PC-12 [6] = assay: Cytotoxicity against rat PC12 cells assessed as decrease in cell viability at 20 uM after 24 hrs by MTT assay; type: cell-based; conditions: pc-12, 24 h
[7] = biological target: T1, Amine oxidase [flavin-containing] B (Homo sapiens, UniProt P27338); assay: Inhibition of human MAO-B using p-tyramine as substrate incubated for 15 mins followed by substrate addition measured for 20 mins by fluorescence assay
T1 sequence (P27338 whole entry): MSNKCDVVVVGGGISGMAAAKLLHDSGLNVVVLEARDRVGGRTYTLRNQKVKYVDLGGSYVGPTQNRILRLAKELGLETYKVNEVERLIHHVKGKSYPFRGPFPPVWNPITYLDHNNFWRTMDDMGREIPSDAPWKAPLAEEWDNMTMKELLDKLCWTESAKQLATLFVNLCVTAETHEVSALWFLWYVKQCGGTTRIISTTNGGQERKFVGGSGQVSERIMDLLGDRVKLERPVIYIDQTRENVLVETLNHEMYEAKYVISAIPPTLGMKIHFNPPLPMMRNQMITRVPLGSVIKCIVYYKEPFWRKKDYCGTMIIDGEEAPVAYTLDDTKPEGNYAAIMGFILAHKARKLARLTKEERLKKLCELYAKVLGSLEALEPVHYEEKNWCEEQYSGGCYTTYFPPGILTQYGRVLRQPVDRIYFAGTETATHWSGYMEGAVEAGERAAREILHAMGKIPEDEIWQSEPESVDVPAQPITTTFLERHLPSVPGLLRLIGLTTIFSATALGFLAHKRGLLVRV

PC-12 [8] = assay: Cytotoxicity against rat PC12 cells assessed as decrease in cell viability at 30 uM after 24 hrs by MTT assay; type: cell-based; conditions: pc-12, 24 h
[9] = Antioxidant activity assessed as ABTS radical cation scavenging activity by measuring trolox equivalent antioxidant capacity measured at 6 mins; type: functional
PC-12 [10] = assay: Reversal of H2O2-induced calcium overload in rat PC12 cells assessed as mean fluorescence intensity at 10 uM after 48 hrs by Fluo-3/AM probe based flow cytometry (reference value: 454014); type: functional
BV-2 [11] = assay: Inhibition of LPS-induced intracellular ROS production in mouse BV2 cells assessed as mean fluorescence intensity at 10 uM incubated with LPS for 18 hrs followed by compound addition measured after 36 hrs by DCFH-DA probe based flow cytometry (reference value: 493530); type: functional
BV-2 [12] = assay: Inhibition of LPS-induced intracellular ROS production in mouse BV2 cells assessed as mean fluorescence intensity at 20 uM incubated with LPS for 18 hrs followed by compound addition measured after 36 hrs by DCFH-DA probe based flow cytometry (reference value: 493530); type: functional
[13] = Half life in Sprague-Dawley rat liver microsomes in presence of NADPH by UPLC/MS analysis; conditions: liver microsomes
Mus musculus [14] = assay: Acute toxicity in mouse assessed as mortality at 677 to 2000 mg/kg, po measured continuously for first 4 hrs and intermittently for next 24 hrs and occasionally for 14 days; type: organism-based; conditions: in vivo
Mus musculus [15] = assay: Acute toxicity in mouse assessed as abnormal changes in water or food consumption at 677 to 2000 mg/kg, po measured continuously for first 4 hrs and intermittently for next 24 hrs and occasionally for 14 days; type: organism-based; conditions: in vivo
Mus musculus [16] = assay: Acute toxicity in mouse assessed as body weight change at 677 to 2000 mg/kg, po measured continuously for first 4 hrs and intermittently for next 24 hrs and occasionally for 14 days; type: organism-based; conditions: in vivo
Mus musculus [17] = assay: Acute toxicity in mouse assessed as abnormal changes in heart at 2000 mg/kg, po measured continuously for first 4 hrs and intermittently for next 24 hrs and occasionally for 14 days by hematoxylin and eosin staining based microscopic method; type: organism-based; conditions: in vivo
Mus musculus [18] = assay: Acute toxicity in mouse assessed as abnormal changes in lung at 2000 mg/kg, po measured continuously for first 4 hrs and intermittently for next 24 hrs and occasionally for 14 days by hematoxylin and eosin staining based microscopic method; type: organism-based; conditions: in vivo
Mus musculus [19] = assay: Acute toxicity in mouse assessed as abnormal changes in brain at 2000 mg/kg, po measured continuously for first 4 hrs and intermittently for next 24 hrs and occasionally for 14 days by hematoxylin and eosin staining based microscopic method; type: organism-based; conditions: in vivo
Mus musculus [20] = assay: Toxicity in ICR mouse assessed as change in body weight at 5 to 10 mg/kg, po administered for 10 consecutive days; type: organism-based; conditions: in vivo
Mus musculus [21] = assay: Toxicity in ICR mouse assessed as diarrhea at 5 to 10 mg/kg, po administered for 10 consecutive days; type: organism-based; conditions: in vivo
Mus musculus [22] = assay: Toxicity in ICR mouse assessed as mouse survival at 5 to 10 mg/kg, po administered for 10 consecutive days; type: organism-based; conditions: in vivo

Chain of Cholinesterase (Equus caballus) (P81908 whole entry): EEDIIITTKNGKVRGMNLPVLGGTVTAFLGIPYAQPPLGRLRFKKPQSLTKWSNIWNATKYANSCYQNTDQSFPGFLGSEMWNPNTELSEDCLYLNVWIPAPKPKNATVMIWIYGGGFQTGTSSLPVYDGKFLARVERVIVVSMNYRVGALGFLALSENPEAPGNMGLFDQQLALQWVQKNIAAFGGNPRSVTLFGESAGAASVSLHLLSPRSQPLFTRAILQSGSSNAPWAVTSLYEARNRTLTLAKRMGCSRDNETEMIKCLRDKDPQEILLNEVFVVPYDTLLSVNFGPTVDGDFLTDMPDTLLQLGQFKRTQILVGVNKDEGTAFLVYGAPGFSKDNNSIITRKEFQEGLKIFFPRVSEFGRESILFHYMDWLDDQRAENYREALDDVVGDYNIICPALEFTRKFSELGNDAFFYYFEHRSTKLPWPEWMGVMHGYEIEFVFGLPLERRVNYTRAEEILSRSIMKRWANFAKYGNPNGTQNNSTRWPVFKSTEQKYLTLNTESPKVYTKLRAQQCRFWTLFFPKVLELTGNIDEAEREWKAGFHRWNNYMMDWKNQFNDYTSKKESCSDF
Chain of Acetylcholinesterase (O42275 whole entry): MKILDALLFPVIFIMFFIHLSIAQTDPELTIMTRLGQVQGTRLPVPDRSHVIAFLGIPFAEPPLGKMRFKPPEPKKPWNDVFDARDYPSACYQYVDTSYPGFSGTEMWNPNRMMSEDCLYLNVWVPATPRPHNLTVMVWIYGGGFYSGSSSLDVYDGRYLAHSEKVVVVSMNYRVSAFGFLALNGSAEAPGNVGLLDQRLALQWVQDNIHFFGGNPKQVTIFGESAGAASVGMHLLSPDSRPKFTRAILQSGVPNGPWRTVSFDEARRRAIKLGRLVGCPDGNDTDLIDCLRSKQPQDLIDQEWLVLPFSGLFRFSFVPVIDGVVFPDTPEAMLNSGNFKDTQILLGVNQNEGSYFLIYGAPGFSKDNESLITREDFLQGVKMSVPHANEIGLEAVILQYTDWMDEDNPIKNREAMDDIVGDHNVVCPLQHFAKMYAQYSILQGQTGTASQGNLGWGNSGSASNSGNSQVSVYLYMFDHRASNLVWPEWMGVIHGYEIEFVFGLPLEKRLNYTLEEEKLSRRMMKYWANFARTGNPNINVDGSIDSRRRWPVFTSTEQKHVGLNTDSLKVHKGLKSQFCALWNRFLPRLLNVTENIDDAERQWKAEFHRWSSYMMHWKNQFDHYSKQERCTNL

For `CC(C)(C)c1cc(/C=C/C(=O)NCCC2CCN(Cc3ccccc3F)CC2)cc(C(C)(C)C)c1O`, the IC50 (Acetylcholinesterase) was 0.075 µM, the viability at 10 µM (PC-12 [1]) was 92.4% and the inhibition [2] was 48%. For the same compound, the Activity (PC-12 [3]) was 2.5%, the viability at 5 µM (PC-12 [4]) was 88.3% and the Activity (PC-12 [5]) was 0.2%. The Activity (PC-12 [6]) was “Non-Toxic”, the IC50 [7] was 7.4 µM and the Activity (PC-12 [8]) was “Toxic”. The Activity (mmolequiv/mmol) [9] was 0.82, the Flu intensity (PC-12 [10]) was 157903 and the Flu intensity (BV-2 [11]) was 390948. For the same compound, the Flu intensity (BV-2 [12]) was 310450, the half-life [13] was 1.49 h and the Activity (Mus musculus [14]) was “Non-Toxic”. The Activity (Mus musculus [15]) was “Non-Toxic”, the Activity (Mus musculus [16]) was “Non-Toxic” and the Activity (Mus musculus [17]) was “Non-Toxic”. The Activity (Mus musculus [18]) was “Non-Toxic”, the Activity (Mus musculus [19]) was “Non-Toxic” and the Activity (Mus musculus [20]) was “Non-Toxic”. The Activity (Mus musculus [21]) was “Non-Toxic” and the Activity (Mus musculus [22]) was “Non-Toxic”.
